In assay [1] the test system is M. tuberculosis 27294. The experiment in a line: In vitro agar dilution assay (MIC), reference strain. The class given is cell-based, Mycobacterium tuberculosis. To be noted: for MIC: Mycobacterium tuberculosis, 27294, Middlebrook 7H10, read-out: MIC against M. tuberculosis 27294; for MIC against M. tuberculosis 27294: Middlebrook 7H10.
Assay [2] concerns M. tuberculosis clinical isolates, sensitive. Nature of the assay: microbe, parasite or virus in culture. The class given is cell-based, Mycobacterium tuberculosis. Conditions: for MIC: Mycobacterium tuberculosis, read-out: MIC against Clinical isolates Sensitive; for MIC against Clinical isolates Sensitive: Table I, agar dilution. For orientation: In agar dilution the substance is mixed into plates at graded concentrations.

≈ marks a conversion by molar mass, not a printed value. Bounds are passed on as bounds.

With `O=C(CCC(=O)c1ccc(F)cc1F)NC[C@H]1CN(c2ccc(-c3nc[nH]n3)c(F)c2)C(=O)O1` [Compound 51, (S)-N-[[3-(3-fluoro-4-(1,2,4-triazolyl)phenyl)-2-oxo-5-oxazolidinyl]methyl]-4-(2,4-difluorophenyl)-4-oxobutanamide], in assay [1], the MIC turned out to be 8 mg/L (≈ 16.9 µM).

Regarding `CC(=O)Nc1ccc(C(=O)CCC(=O)NC[C@H]2CN(c3ccc(-c4nc[nH]n4)c(F)c3)C(=O)O2)cc1` [Compound 50, (S)-N-[[3-(3-fluoro-4-(1,2,4-triazolyl)phenyl)-2-oxo-5-oxazolidinyl]methyl]-4-(4-acetamidophenyl)-4-oxobutanamide], the MIC in assay [2] was 2 to 4 mg/L (≈ 4.04 to 8.09 µM); in assay [1] it was 2 mg/L (≈ 4.04 µM). For the compound `CSc1ccc(C(=O)CCC(=O)NC[C@H]2CN(c3ccc(N4CCOCC4)c(F)c3)C(=O)O2)cc1` [Compound 21, (S)-N-[[3-(3-fluoro-4-morpholinylphenyl)-2-oxo-5-oxazolidinyl]methyl]-4-oxo-4-(4-thiomethyl)phenylbutanamide], the “MIC against Clinical isolates Sensitive” value in assay [2] fell in the range of 0.5 to 2 mg/L. Also, the “MIC against M. tuberculosis 27294” value in assay [1] amounted to 0.5 µg/mL (≈ 0.997 µM). For `O=C(CCC(=O)c1ccc(Cl)cc1)NC[C@H]1CN(c2ccc(-n3nnc4ccccc43)c(F)c2)C(=O)O1` [Compound 39, (S)-N-[[3-(3-fluoro-4-benzotriazolylphenyl)-2-oxo-5-oxazolidinyl]methyl]-4-(4-chlorophenyl)-4-oxobutanamide], the “MIC against Clinical isolates Sensitive” value in assay [2] fell in the range of 2 to 4 mg/L. In assay [1], the “MIC against M. tuberculosis 27294” value worked out at 2 µg/mL (≈ 3.83 µM).

Turning to `Cc1ccc(C(=O)CCC(=O)NC[C@H]2CN(c3ccc(-c4nc[nH]n4)c(F)c3)C(=O)O2)c(C)c1` [Compound 43, (S)-N-[[3-(3-fluoro-4-(1,2,4-triazolyl)phenyl)-2-oxo-5-oxazolidinyl]methyl]-4-(2,4-dimethylphenyl)-4-oxobutanamide], the values for the MIC in assay [2] and in assay [1] were 0.5 to 1 mg/L (≈ 1.07 to 2.15 µM) and 1 mg/L (≈ 2.15 µM), respectively. For “(S)-N-[[3-(3-fluoro-4-(1,2,4-triazolyl)phenyl)-2-oxo-5-oxazolidinyl]methyl]-4-(2′,2′-dimethyl-4-ethylphenyl)-4-oxobutanamide [Compound 45]”, the “MIC against Clinical isolates Sensitive” value in assay [2] lay within 2 to 4 mg/L. Moreover, the “MIC against M. tuberculosis 27294” value in assay [1] amounted to 2.0 µg/mL. “(S)-N-[[3-(3-fluoro-4-(1,2,4-triazolyl)phenyl)-2-oxo-5-oxazolidinyl]methyl]-4-oxo-4-phenylbutanamide [Compound 40]”: in assay [2], the “MIC against Clinical isolates Sensitive” value lay in the range of 1 to 2 mg/L. Moreover, the “MIC against M. tuberculosis 27294” value in assay [1] was determined as 1 µg/mL. Regarding `CC(C)Cc1ccc(C(=O)CCC(=O)NC[C@H]2CN(c3ccc(N4CCOCC4)c(F)c3)C(=O)O2)cc1` [Compound 17], the “MIC against Clinical isolates Sensitive” value in assay [2] stood at 1.0 mg/L (≈ 1.95 µM). The “MIC against M. tuberculosis 27294” value in assay [1] amounted to 0.5 µg/mL (≈ 0.977 µM). With `O=C(CCC(=O)c1ccc(Cl)cc1)NC[C@H]1CN(c2ccc(-c3nc[nH]n3)c(F)c2)C(=O)O1` [Compound 49, (S)-N-[[3-(3-fluoro-4-(1,2,4-triazolyl)phenyl)-2-oxo-5-oxazolidinyl]methyl]-4-(4-chlorophenyl)-4-oxobutanamide], the results for the MIC in assay [2] and in assay [1] were 4 to 16 mg/L (≈ 8.48 to 33.9 µM) and 4 mg/L (≈ 8.48 µM), respectively.

Take `CC(C)Cc1ccc(C(=O)CCC(=O)NC[C@H]2CN(c3ccc([N+]4([O-])CCOCC4)c(F)c3)C(=O)O2)cc1` [Compound 33]: in assay [2], the “MIC against Clinical isolates Sensitive” value worked out at 1 mg/L (≈ 1.9 µM). The “MIC against M. tuberculosis 27294” value in assay [1] turned out to be 0.5 µg/mL (≈ 0.948 µM). With `Cc1ccc(C(=O)CCC(=O)NC[C@H]2CN(c3ccc(-n4nnc5ccccc54)c(F)c3)C(=O)O2)c(C)c1` [Compound 27, (S)-N-[[3-(3-fluoro-4-benzotriazolylphenyl)-2-oxo-5-oxazolidinyl]methyl]-4-(2,4-dimethylphenyl)-4-oxobutanamide], the “MIC against Clinical isolates Sensitive” value in assay [2] was above 16 mg/L. Moreover, the “MIC against M. tuberculosis 27294” value in assay [1] is above 16 µg/mL. Take `COc1ccc(C(=O)CCC(=O)NC[C@H]2CN(c3ccc(N4CCOCC4)c(F)c3)C(=O)O2)cc1` [Compound 13, (S)-N-[[3-(3-fluoro-4-morpholinylphenyl)-2-oxo-5-oxazolidinyl]methyl]-4-(4-methoxyphenyl)-4-oxobutanamide]: in assay [2], the “MIC against Clinical isolates Sensitive” value was determined as 2 mg/L (≈ 4.12 µM). Besides, the “MIC against M. tuberculosis 27294” value in assay [1] came out at 2 µg/mL (≈ 4.12 µM). On to `O=C(CCC(=O)c1ccc(F)cc1F)NC[C@H]1CN(c2ccc(N3CCOCC3)c(F)c2)C(=O)O1` [Compound 18, (S)-N-[[3-(3-fluoro-4-morpholinylphenyl)-2-oxo-5-oxazolidinyl]methyl]-4-(2,4-difluorophenyl)-4-oxobutanamide], for which, in assay [2], the “MIC against Clinical isolates Sensitive” value was in the range of 1 to 4 mg/L. Moreover, in assay [1], the “MIC against M. tuberculosis 27294” value is on record as 4− μg/ml. With `CCCc1ccc(C(=O)CCC(=O)NC[C@H]2CN(c3ccc(N4CCCC4)c(F)c3)C(=O)O2)c(C)c1` [Compound 58, (S)-N-[[3-(3-fluoro-4-pyrrolidinylphenyl)-2-oxo-5-oxazolidinyl]methyl]-4-(2′-methyl-4-propylphenyl)-4-oxobutanamide], the “MIC against M. tuberculosis 27294” value in assay [1] was 8 µg/mL (≈ 16.1 µM). `O=C(CCC(=O)c1ccccc1)NC[C@H]1CN(c2ccc(N3CCOCC3)c(F)c2)C(=O)O1` [Compound 1, (S)-N-[[3-(3-fluoro-4-morpholinylphenyl)-2-oxo-5-oxazolidinyl]methyl]-4-oxo-4-phenylbutanamide]: the “MIC against Clinical isolates Sensitive” value in assay [2] fell in the range of 4 to 16 mg/L. In addition, the “MIC against M. tuberculosis 27294” value in assay [1] is 16 µg/mL (≈ 35.1 µM). With `CC(=O)NC[C@H]1CN(c2ccc(N3CCOCC3)c(F)c2)C(=O)O1` [Linezolid, (S)-N-[[3-[3-fluoro-4-(4-morpholinyl)phenyl]-2-oxo-5-oxazolidin-yl]methyl]-acetamide, reference compound], the MIC in assay [2] was 0.25 to 0.5 mg/L (≈ 0.741 to 1.48 µM); in assay [1], 0.5 mg/L (≈ 1.48 µM). Consider `Cc1ccc(C(=O)CCC(=O)NC[C@H]2CN(c3ccc(N4CCOCC4)c(F)c3)C(=O)O2)cc1` [Compound 2, (S)-N-[[3-(3-fluoro-4-morpholinylphenyl)-2-oxo-5-oxazolidinyl]methyl]-4-(4-methylphenyl)-4-oxobutanamide], for which, in assay [2], the “MIC against Clinical isolates Sensitive” value came out at 8 mg/L (≈ 17 µM). Moreover, the “MIC against M. tuberculosis 27294” value in assay [1] worked out at 8 µg/mL (≈ 17 µM).

For the compound `O=C(CCC(=O)c1cccs1)NC[C@H]1CN(c2ccc(N3CCOCC3)c(F)c2)C(=O)O1` [Compound 19, (S)-N-[[3-(3-fluoro-4-morpholinylphenyl)-2-oxo-5-oxazolidinyl]methyl]-4-oxo-4-(2-thienyl)butanamide], the “MIC against Clinical isolates Sensitive” value in assay [2] lay in the range of 1 to 2 mg/L. Also, the “MIC against M. tuberculosis 27294” value in assay [1] was 2 µg/mL (≈ 4.33 µM). Regarding `O=C(CCC(=O)c1ccccc1)NC[C@H]1CN(c2ccc(N3CCSCC3)c(F)c2)C(=O)O1` [Compound 8, (S)-N-[[3-(3-fluoro-4-thiomorpholinylphenyl)-2-oxo-5-oxazolidinyl]methyl]-4-oxo-4-phenylbutanamide], in assay [2], the “MIC against Clinical isolates Sensitive” value was “.5 to 2 mg/L”. For the same compound, the “MIC against M. tuberculosis 27294” value in assay [1] was 2 µg/mL (≈ 4.24 µM). In the case of “(S)-N-[[3-(3-fluoro-4-morpholinylphenyl)-2-oxo-5-oxazolidinyl]methyl]-4-[4-(2′,2′-dimethyl-4-ethylphenyl)-4-oxobutanamide [Compound 20]”, the “MIC against Clinical isolates Sensitive” value in assay [2] was 1 to 2 mg/L. Also, the “MIC against M. tuberculosis 27294” value in assay [1] was 1 µg/mL. For `O=C(C=CC(=O)c1ccccc1)NC[C@H]1CN(c2ccc(N3CCOCC3)c(F)c2)C(=O)O1` [Compound 34, (S)-N-[[3-(3-fluoro-4-morpholinylphenyl)-2-oxo-5-oxazolidinyl]methyl]-4-oxo-4-phenylbut-2-enamide] the same measures were above 16 mg/L and above 16 µg/mL.

Turning to `O=C(CCC(=O)c1cccs1)NC[C@H]1CN(c2ccc(N3CCCC3)c(F)c2)C(=O)O1` [Compound 28, (S)-N-[[3-(3-fluoro-4-pyrrolidinylphenyl)-2-oxo-5-oxazolidinyl]methyl]-4-oxo-4-(2-thienyl)butanamide], in assay [2], the “MIC against Clinical isolates Sensitive” value lay within 1 to 2 mg/L. Further, the “MIC against M. tuberculosis 27294” value in assay [1] is 0.5 µg/mL (≈ 1.12 µM).

With `Cc1ccc(C(=S)CCC(=O)NC[C@H]2CN(c3ccc(N4CCOCC4)c(F)c3)C(=O)O2)cc1` [Compound 15, (S)-N-[[3-(3-fluoro-4-morpholinylphenyl)-2-oxo-5-oxazolidinyl]methyl]-4-(4-methylphenyl)-4-thiooxobutanamide], the “MIC against Clinical isolates Sensitive” value in assay [2] was above 16 mg/L. The “MIC against M. tuberculosis 27294” value in assay [1] is above 16 µg/mL. For `O=C(CCC(=O)c1cccs1)NC[C@H]1CN(c2ccc(-c3nc[nH]n3)c(F)c2)C(=O)O1` [Compound 47, (S)-N-[[3-(3-fluoro-4-(1,2,4-triazolyl)phenyl)-2-oxo-5-oxazolidinyl]methyl]-4-oxo-4-(2-thienyl)butanamide], the values for the MIC in assay [2] and in assay [1] were 1 to 2 mg/L (≈ 2.25 to 4.51 µM) and 1 mg/L (≈ 2.25 µM), respectively. `COc1ccc(C(=O)CCC(=O)NC[C@H]2CN(c3ccc(N4CCCCC4)c(F)c3)C(=O)O2)cc1` [Compound 35, (S)-N-[[3-(3-fluoro-4-piperidylphenyl)-2-oxo-5-oxazolidinyl]methyl]-4-(4-methoxyphenyl)-4-oxobutanamide]: the “MIC against Clinical isolates Sensitive” value in assay [2] fell in the range of 2 to 4 mg/L. Besides, the “MIC against M. tuberculosis 27294” value in assay [1] was 4 µg/mL (≈ 8.27 µM). With `O=C(CCC(=O)c1ccc2ccccc2c1)NC[C@H]1CN(c2ccc(N3CCOCC3)c(F)c2)C(=O)O1` [Compound 16, (S)-N-[[3-(3-fluoro-4-morpholinylphenyl)-2-oxo-5-oxazolidinyl]methyl]-4-(4-2-naphthyl)-4-oxobutanamide], the “MIC against Clinical isolates Sensitive” value in assay [2] is 0.5 mg/L (≈ 0.989 µM). For the same compound, the “MIC against M. tuberculosis 27294” value in assay [1] stood at 0.5 µg/mL (≈ 0.989 µM). As to `O=C(CCC(=O)c1ccc2ccccc2c1)NC[C@H]1CN(c2ccc(-c3nc[nH]n3)c(F)c2)C(=O)O1` [Compound 48, (S)-N-[[3-(3-fluoro-4-(1,2,4-triazolyl)phenyl)-2-oxo-5-oxazolidinyl]methyl]-4-(2-naphthyl)-4-oxobutanamide], the values for the MIC in assay [2] and in assay [1] were 2 to 4 mg/L (≈ 4.1 to 8.21 µM) and 2 mg/L (≈ 4.1 µM), respectively. In the case of `O=C(CCC(=O)c1ccc2ccccc2c1)NC[C@H]1CN(c2ccc(N3CCCC3)c(F)c2)C(=O)O1` [Compound 57, (S)-N-[[3-(3-fluoro-4-pyrrolidinylphenyl)-2-oxo-5-oxazolidinyl]methyl]-4-(2-naphthyl)-4-oxobutanamide], the “MIC against M. tuberculosis 27294” value in assay [1] was 16 µg/mL (≈ 32.7 µM).

Source of the values: patent US7691889B2, “Antimycobacterial compounds” (Lupin Limited, priority 2002, dated 2010).
